Results: ChEMBL document CHEMBL4414638, “Structure-Activity Relationship of Peptide-Conjugated Chloramphenicol for Inhibiting Escherichia coli” (J Med Chem, 2019)
Converted amounts (≈) assume the structure as drawn. The source made the active and inactive calls. The rule behind the calls is not given here. *1 amine or outer side, *2 acyl side, *3 side chain or, on linkers, in order; H or OH if unused. Where a SMILES comes first, the peptide text is derived from it. [ ]: non-standard residue; d: D form. The star is where a group is joined. X1 = O=C(CCC(=O)[*:2])OC[C@@H](N[*:1])[C@H](O)c1ccc([N+](=O)[O-])cc1; Dichloroacetyl = O=C(C(Cl)Cl)*

Key:
Escherichia coli [1] = assay: Antibacterial activity against yeiG gene deficient Escherichia coli assessed as reduction in bacterial growth at 0.1 to 100 uM incubated for 16 hrs; assay type: functional, organism-based
[2] = Drug metabolism in Escherichia coli K-12 lysates assessed as esterase-mediated drug hydrolysis by measuring apparent first-order rate constant at 200 uM incubated up to 24 hrs by HPLC analysis; assay type: ADME, subcellular, Lysate; details: escherichia coli k-12, isolated protein
Escherichia coli [3] = assay: Antibacterial activity against ydgR gene deficient Escherichia coli assessed as reduction in bacterial growth at 0.1 to 100 uM incubated for 16 hrs; assay type: functional, organism-based
Escherichia coli [4] = assay: Antibacterial activity against frsA gene deficient Escherichia coli assessed as reduction in bacterial growth at 0.1 to 100 uM incubated for 16 hrs; assay type: functional, organism-based
Escherichia coli [5] = assay: Antibacterial activity against yqiA gene deficient Escherichia coli assessed as reduction in bacterial growth at 0.1 to 100 uM incubated for 16 hrs; assay type: functional, organism-based
Escherichia coli [6] = assay: Antibacterial activity against Escherichia coli K-12 assessed as reduction in bacterial growth incubated for 16 hrs in presence of porcine liver esterase; assay type: functional; details: K-12, 16 h
[7] = Drug metabolism in human serum assessed as formation of chloramphenicol at 200 uM at 37 degC after 24 hrs by LC-MS analysis relative to control
Escherichia coli [8] = assay: Antibacterial activity against yjfP gene deficient Escherichia coli assessed as reduction in bacterial growth at 0.1 to 100 uM incubated for 16 hrs; assay type: functional, organism-based
[9] = Drug metabolism in human HepG2 cells lysates assessed as esterase-mediated drug hydrolysis at 200 uM incubated up to 24 hrs by HPLC analysis; assay type: ADME, subcellular, Lysate; details: hepg2, 24 h
Escherichia coli [10] = assay: Antibacterial activity against ompF gene deficient Escherichia coli assessed as reduction in bacterial growth at 0.1 to 100 uM incubated for 16 hrs; assay type: functional, organism-based
Escherichia coli [11] = assay: Antibacterial activity against yfbB gene deficient Escherichia coli assessed as reduction in bacterial growth at 0.1 to 100 uM incubated for 16 hrs; assay type: functional, organism-based
Escherichia coli [12] = assay: Antibacterial activity against ybfF gene deficient Escherichia coli assessed as reduction in bacterial growth at 0.1 to 100 uM incubated for 16 hrs; assay type: functional, organism-based
Escherichia coli [13] = assay: Antibacterial activity against Escherichia coli K-12 assessed as reduction in bacterial growth incubated for 16 hrs in absence of porcine liver esterase; assay type: functional; details: K-12, 16 h
[14] = Drug metabolism in Escherichia coli K-12 lysates assessed as esterase-mediated drug hydrolysis at 200 uM incubated up to 24 hrs by HPLC analysis; assay type: ADME, subcellular, Lysate; details: escherichia coli k-12, isolated protein
Escherichia coli [15] = assay: Antibacterial activity against Escherichia coli K-12 assessed as reduction in bacterial growth incubated for 16 hrs; assay type: functional; details: K-12, 16 h
Escherichia coli [16] = assay: Antibacterial activity against fepA gene deficient Escherichia coli assessed as reduction in bacterial growth at 0.1 to 100 uM incubated for 16 hrs; assay type: functional, organism-based
Escherichia coli [17] = assay: Antibacterial activity against ypfH gene deficient Escherichia coli assessed as reduction in bacterial growth at 0.1 to 100 uM incubated for 16 hrs; assay type: functional, organism-based
Escherichia coli [18] = assay: Antibacterial activity against bioH gene deficient Escherichia coli assessed as reduction in bacterial growth at 0.1 to 100 uM incubated for 16 hrs; assay type: functional, organism-based
Escherichia coli [19] = assay: Antibacterial activity against acrA gene deficient Escherichia coli assessed as reduction in bacterial cell viability at 0.1 to 100 uM incubated for 16 hrs relative to control; assay type: functional
HEK293 = assay: Cytotoxicity in human HEK293 cells assessed as reduction in cell viability at 20 uM […] relative to chloramphenicol; assay type: cell-based; details: hek293, 20 µM
[20] = Cytotoxicity in human HS5 cells assessed as reduction in cell viability at 20 uM to 2 mM incubated up to […]rs relative to chloramphenicol; assay type: cell-based

Compound	MIC (Escherichia coli [15]) [µM]	Activity (HEK293)	Activity [20]	other results
O=C(O)CNC(=O)[C@@H](CO)NC(=O)CCC(=O)OC[C@@H](NC(=O)C(Cl)Cl)[C@H](O)c1ccc([N+](=O)[O-])cc1	40 (≈ 22.7 µg/mL)			Activity (Escherichia coli [1]): inactive; K [2]: 1.267 h⁻¹; Activity (Escherichia coli [3]): Active; Activity (Escherichia coli [4]): inactive; Activity (Escherichia coli [5]): inactive; MIC (Escherichia coli [6]): 40 µM; Drug metabolism [7]: Metabolite_Detected; Activity (Escherichia coli [8]): inactive; Drug metabolism [9]: Metabolite_Detected; Activity (Escherichia coli [10]): Active; Activity (Escherichia coli [11]): inactive; Activity (Escherichia coli [12]): inactive; MIC (Escherichia coli [13]): 40 µM (≈ 22.7 µg/mL); Drug metabolism [14]: Metabolite_Detected; Activity (Escherichia coli [16]): Active; Activity (Escherichia coli [17]): inactive; Activity (Escherichia coli [18]): inactive; Activity (Escherichia coli [19]): 40%
O=C(CCC(=O)OC[C@@H](NC(=O)C(Cl)Cl)[C@H](O)c1ccc([N+](=O)[O-])cc1)N[C@H](Cc1ccccc1)C(=O)N[C@H](Cc1ccccc1)C(=O)O	100 (≈ 71.8 µg/mL)			
O=C(CCC(=O)OC[C@@H](NC(=O)C(Cl)Cl)[C@H](O)c1ccc([N+](=O)[O-])cc1)NCC(=O)NCC(=O)N[C@H](Cc1ccccc1)C(=O)N[C@H](Cc1ccccc1)C(=O)O	20 (≈ 16.6 µg/mL)	Toxic	Non-Toxic	Drug metabolism [7]: Metabolite_Detected
N=C(N)NCCC[C@@H](NC(=O)[C@@H](CCCNC(=N)N)NC(=O)[C@@H](Cc1ccccc1)NC(=O)[C@@H](Cc1ccccc1)NC(=O)CCC(=O)OC[C@@H](NC(=O)C(Cl)Cl)[C@H](O)c1ccc([N+](=O)[O-])cc1)C(=O)O	200 (≈ 206 µg/mL)			
NCCCC[C@@H](NC(=O)[C@@H](CCCCN)NC(=O)[C@@H](Cc1ccccc1)NC(=O)[C@@H](Cc1ccccc1)NC(=O)CCC(=O)OC[C@@H](NC(=O)C(Cl)Cl)[C@H](O)c1ccc([N+](=O)[O-])cc1)C(=O)O	200 (≈ 195 µg/mL)			
O=C(CCC(=O)OC[C@@H](NC(=O)C(Cl)Cl)[C@H](O)c1ccc([N+](=O)[O-])cc1)N[C@H](Cc1ccccc1)C(=O)N[C@H](Cc1ccccc1)C(=O)N[C@H](Cc1ccc2ccccc2c1)C(=O)O	> 200			
O=C(O)CNC(=O)CNC(=O)[C@@H](Cc1ccc2ccccc2c1)NC(=O)[C@@H](Cc1ccccc1)NC(=O)[C@@H](Cc1ccccc1)NC(=O)CCC(=O)OC[C@@H](NC(=O)C(Cl)Cl)[C@H](O)c1ccc([N+](=O)[O-])cc1	> 200			
O=C(O)CNC(=O)CNC(=O)CNC(=O)CNC(=O)CCC(=O)OC[C@@H](NC(=O)C(Cl)Cl)[C@H](O)c1ccc([N+](=O)[O-])cc1 (Dichloroacetyl-[X1]GGGG-OH)	20 (≈ 13 µg/mL)	Toxic	Non-Toxic	
NCCCC[C@@H](NC(=O)[C@@H](CCCCN)NC(=O)CCC(=O)OC[C@@H](NC(=O)C(Cl)Cl)[C@H](O)c1ccc([N+](=O)[O-])cc1)C(=O)O	200 (≈ 136 µg/mL)			Activity (Escherichia coli [1]): inactive; K [2]: 0.317 h⁻¹; Activity (Escherichia coli [3]): Active; Activity (Escherichia coli [4]): inactive; Activity (Escherichia coli [5]): inactive; MIC (Escherichia coli [6]): 100 µM; Drug metabolism [7]: Metabolite_Detected; Activity (Escherichia coli [8]): inactive; Drug metabolism [9]: Metabolite_Detected; Activity (Escherichia coli [10]): Active; Activity (Escherichia coli [11]): inactive; Activity (Escherichia coli [12]): inactive; MIC (Escherichia coli [13]): 200 µM (≈ 136 µg/mL); Drug metabolism [14]: Metabolite_Detected; Activity (Escherichia coli [16]): Active; Activity (Escherichia coli [17]): inactive; Activity (Escherichia coli [18]): inactive; Activity (Escherichia coli [19]): 20%
C[C@H](NC(=O)[C@H](C)NC(=O)CCC(=O)OC[C@@H](NC(=O)C(Cl)Cl)[C@H](O)c1ccc([N+](=O)[O-])cc1)C(=O)O	100 (≈ 56.5 µg/mL)			
COC(=O)CCC(=O)OC[C@@H](NC(=O)C(Cl)Cl)[C@H](O)c1ccc([N+](=O)[O-])cc1	> 200			
O=C(CCC(=O)OC[C@@H](NC(=O)C(Cl)Cl)[C@H](O)c1ccc([N+](=O)[O-])cc1)NCCOP(=O)(O)O	100 (≈ 54.6 µg/mL)			
O=C(O)C[C@@H](NC(=O)[C@@H](CC(=O)O)NC(=O)CCC(=O)OC[C@@H](NC(=O)C(Cl)Cl)[C@H](O)c1ccc([N+](=O)[O-])cc1)C(=O)O	> 200			
O=C(CCC(=O)OC[C@@H](NC(=O)C(Cl)Cl)[C@H](O)c1ccc([N+](=O)[O-])cc1)NCC(=O)NCC(=O)N[C@@H](Cc1ccccc1)C(=O)N[C@@H](Cc1ccccc1)C(=O)O	20 (≈ 16.6 µg/mL)	Toxic	Non-Toxic	
O=C(O)C[C@H](NC(=O)[C@H](CC(=O)O)NC(=O)CCC(=O)OC[C@@H](NC(=O)C(Cl)Cl)[C@H](O)c1ccc([N+](=O)[O-])cc1)C(=O)O	200 (≈ 131 µg/mL)			
C[C@H](NC(=O)[C@H](C)NC(=O)[C@H](C)NC(=O)CCC(=O)OC[C@@H](NC(=O)C(Cl)Cl)[C@H](O)c1ccc([N+](=O)[O-])cc1)C(=O)O	100 (≈ 63.6 µg/mL)			
O=C(O)CNC(=O)CNC(=O)[C@H](Cc1ccccc1)NC(=O)CCC(=O)OC[C@@H](NC(=O)C(Cl)Cl)[C@H](O)c1ccc([N+](=O)[O-])cc1	80 (≈ 54.8 µg/mL)			
N=C(N)NCCC[C@@H](NC(=O)[C@@H](CCCNC(=N)N)NC(=O)CCC(=O)OC[C@@H](NC(=O)C(Cl)Cl)[C@H](O)c1ccc([N+](=O)[O-])cc1)C(=O)O	200 (≈ 147 µg/mL)			
O=C(O)CC[C@@H](NC(=O)[C@@H](CCC(=O)O)NC(=O)CCC(=O)OC[C@@H](NC(=O)C(Cl)Cl)[C@H](O)c1ccc([N+](=O)[O-])cc1)C(=O)O	> 200			
C[C@@H](NC(=O)CCC(=O)OC[C@@H](NC(=O)C(Cl)Cl)[C@H](O)c1ccc([N+](=O)[O-])cc1)C(=O)O	> 200			
O=C(O)CCC(=O)OC[C@@H](NC(=O)C(Cl)Cl)[C@H](O)c1ccc([N+](=O)[O-])cc1 [CHLORAMPHENICOL SUCCINIC ACID]	> 200	Toxic	Non-Toxic	

The remaining compounds from weak to strong by MIC (Escherichia coli [15]), led by results:

MIC (Escherichia coli [15]) [µM]	Compound	Activity (HEK293)	Activity [20]	other results
80 (≈ 50.9 µg/mL)	C[C@@H](NC(=O)[C@@H](C)NC(=O)[C@@H](C)NC(=O)CCC(=O)OC[C@@H](NC(=O)C(Cl)Cl)[C@H](O)c1ccc([N+](=O)[O-])cc1)C(=O)O			
80 (≈ 45.2 µg/mL)	C[C@@H](NC(=O)[C@@H](C)NC(=O)CCC(=O)OC[C@@H](NC(=O)C(Cl)Cl)[C@H](O)c1ccc([N+](=O)[O-])cc1)C(=O)O			
40 (≈ 21.2 µg/mL)	O=C(CCC(=O)OC[C@@H](NC(=O)C(Cl)Cl)[C@H](O)c1ccc([N+](=O)[O-])cc1)NCCS(=O)(=O)O			
40 (≈ 28.3 µg/mL)	O=C(O)CNC(=O)CNC(=O)CNC(=O)CNC(=O)CNC(=O)CCC(=O)OC[C@@H](NC(=O)C(Cl)Cl)[C@H](O)c1ccc([N+](=O)[O-])cc1 (Dichloroacetyl-[X1]GGGGG-OH)			
20 (≈ 6.46 µg/mL)	O=C(N[C@H](CO)[C@H](O)c1ccc([N+](=O)[O-])cc1)C(Cl)Cl [CHLORAMPHENICOL]	Toxic		
20 (≈ 13.7 µg/mL)	O=C(CCC(=O)OC[C@@H](NC(=O)C(Cl)Cl)[C@H](O)c1ccc([N+](=O)[O-])cc1)NCC(=O)NCC(=O)N[C@@H](Cc1ccccc1)C(=O)O	Toxic	Non-Toxic	
20 (≈ 11 µg/mL)	C[C@@H](NC(=O)CNC(=O)CCC(=O)OC[C@@H](NC(=O)C(Cl)Cl)[C@H](O)c1ccc([N+](=O)[O-])cc1)C(=O)O	Toxic	Non-Toxic	
20 (≈ 11 µg/mL)	CNC(=O)CNC(=O)CNC(=O)CCC(=O)OC[C@@H](NC(=O)C(Cl)Cl)[C@H](O)c1ccc([N+](=O)[O-])cc1	Toxic	Non-Toxic	
20 (≈ 11.9 µg/mL)	CC(C)C[C@@H](NC(=O)CNC(=O)CCC(=O)OC[C@@H](NC(=O)C(Cl)Cl)[C@H](O)c1ccc([N+](=O)[O-])cc1)C(=O)O	Toxic	Non-Toxic	
20 (≈ 11.9 µg/mL)	O=C(O)C[C@H](NC(=O)CNC(=O)CCC(=O)OC[C@@H](NC(=O)C(Cl)Cl)[C@H](O)c1ccc([N+](=O)[O-])cc1)C(=O)O	Toxic	Non-Toxic	
20 (≈ 13.7 µg/mL)	O=C(O)CNC(=O)[C@H](Cc1ccccc1)NC(=O)CNC(=O)CCC(=O)OC[C@@H](NC(=O)C(Cl)Cl)[C@H](O)c1ccc([N+](=O)[O-])cc1	Toxic	Non-Toxic	
